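All cell lines were grown in 96-well plates and treated with compound for 48 hours. GI50 = concentration required for 50% inhibition of growth.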 Active and inactive are the calls of the source. Cut-off read from the data, not from the text of the source: active = GI50 up to about 1.1 µM and inactive = higher.
Tests used:
Experiment in all cases: growth of human tumour cells (NCI), 48 h
COLO 205 = system: COLO 205
HCT-116 = system: HCT-116
HOP-62 = system: HOP-62
HOP-92 = system: HOP-92
HT-29 = system: HT-29
IGROV-1 = system: IGROV-1
K562 = system: K562
KM12 = system: KM12
NCI-H226 = system: NCI-H226
NCI-H460 = system: NCI-H460
NCI-H522 = system: NCI-H522
NCI/ADR-RES = system: NCI/ADR-RES
OVCAR-3 = system: OVCAR-3
OVCAR-8 = system: OVCAR-8
RPMI-8226 = system: RPMI-8226
SF-539 = system: SF-539
SK-MEL-2 = system: SK-MEL-2
SN12C = system: SN12C
SNB-75 = system: SNB-75
UACC-257 = system: UACC-257

| Compound | GI50 (COLO 205) | GI50 (HCT-116) | GI50 (HOP-62) | GI50 (HOP-92) | GI50 (HT-29) | GI50 (IGROV-1) | GI50 (K562) | GI50 (KM12) | GI50 (NCI-H226) | GI50 (NCI-H460) | GI50 (NCI-H522) | GI50 (NCI/ADR-RES) | GI50 (OVCAR-3) | GI50 (OVCAR-8) | GI50 (RPMI-8226) | GI50 (SF-539) | GI50 (SK-MEL-2) | GI50 (SN12C) | GI50 (SNB-75) | GI50 (UACC-257) |
| --- | --- | --- | --- | --- | --- | --- | --- | --- | --- | --- | --- | --- | --- | --- | --- | --- | --- | --- | --- | --- |
| C=C1C[C@@H](O)C[C@@]2(C)C[C@@H]3OC(=O)C(=C)[C@@H]3C[C@H]12 | 1.61 µM (inactive) | 3.43 µM (inactive) | 15.4 µM (inactive) | 13.1 µM (inactive) | 2.94 µM (inactive) | 11.2 µM (inactive) | 4.19 µM (inactive) | 6.62 µM (inactive) | 14 µM (inactive) | 16.5 µM (inactive) | 7.78 µM (inactive) | 6.55 µM (inactive) | 11.2 µM (inactive) | 16 µM (inactive) | 2.92 µM (inactive) | 9.68 µM (inactive) | 11.9 µM (inactive) | 5.57 µM (inactive) | 8.47 µM (inactive) | 4.43 µM (inactive) |
| Cc1cc(O)c2c(c1O)C(=O)C13C(=C(O)C4C(O)C1C1C(O)C3C(O)=C3C(=O)c5c(O)cc(C)c(O)c5C(=O)C341)C2=O (stereo not given) | 0.0276 µM (active) | 0.0342 µM (active) | 0.207 µM (active) | 0.24 µM (active) | 0.0451 µM (active) | 0.137 µM (active) | 0.0322 µM (active) | 0.0726 µM (active) | 0.199 µM (active) | 0.0348 µM (active) | 0.185 µM (active) | 0.15 µM (active) | 3.56 µM (inactive) | 0.0615 µM (active) | 0.0121 µM (active) | 0.134 µM (active) | 0.172 µM (active) | 0.0471 µM (active) | 0.0499 µM (active) | 0.267 µM (active) |
| CN(C)CCOc1cc2c(c3ccccc13)-c1ccccc1C2=O | 1.92 µM (inactive) | 1.03 µM (active) | 1.19 µM (inactive) | 0.933 µM (active) | 1.19 µM (inactive) | 1.88 µM (inactive) | 1.74 µM (inactive) | 1.46 µM (inactive) | 1.95 µM (inactive) | 0.675 µM (active) | 1.32 µM (inactive) | 0.818 µM (active) | 1.9 µM (inactive) | 0.895 µM (active) | 1.56 µM (inactive) | 1.76 µM (inactive) | 1.95 µM (inactive) | 1.58 µM (inactive) | 1.8 µM (inactive) | 1.72 µM (inactive) |
